Data from ChEMBL document CHEMBL1201862, “PubChem BioAssay data set” (2004).
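Results reflect a 48-hour exposure of cells in 96-well plates to compound at five concentrations. GI50: concentration for 50% inhibition of growth.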 Activity calls are given as the source filed them. Rule as the data show it: active = GI50 up to about 1.1 µM and inactive = higher.

How the values were obtained:
Test in all cases: NCI tumour cell line growth inhibition, 48 h
M14 = system: M14
SF-295 = system: SF-295
OVCAR-3 = system: OVCAR-3
MDA-MB-435 = system: MDA-MB-435
HCC 2998 = system: HCC 2998
KM12 = system: KM12
786-0 = system: 786-0
SN12C = system: SN12C
UO-31 = system: UO-31
SF-539 = system: SF-539
RXF 393 = system: RXF 393
HCT-116 = system: HCT-116
ACHN = system: ACHN
PC-3 = system: PC-3
SK-MEL-2 = system: SK-MEL-2
HOP-92 = system: HOP-92
Malme-3M = system: Malme-3M
SR = system: SR
MDA-MB-231 = system: MDA-MB-231
OVCAR-5 = system: OVCAR-5
SK-MEL-28 = system: SK-MEL-28
OVCAR-8 = system: OVCAR-8
HCT-15 = system: HCT-15
TK-10 = system: TK-10
DU-145 = system: DU-145
K562 = system: K562
SNB-75 = system: SNB-75
OVCAR-4 = system: OVCAR-4
A498 = system: A498
HOP-62 = system: HOP-62
BT-549 = system: BT-549
SNB-19 = system: SNB-19
EKVX = system: EKVX
SK-OV-3 = system: SK-OV-3
IGROV-1 = system: IGROV-1
UACC-257 = system: UACC-257
UACC-62 = system: UACC-62
T47D = system: T47D
U-251 = system: U-251
LOX IMVI = system: LOX IMVI
NCI/ADR-RES = system: NCI/ADR-RES
NCI-H23 = system: NCI-H23
A549 = system: A549
SK-MEL-5 = system: SK-MEL-5
COLO 205 = system: COLO 205
NCI-H226 = system: NCI-H226
MCF7 = system: MCF7
NCI-H460 = system: NCI-H460
NCI-H522 = system: NCI-H522
CCRF-CEM = system: CCRF-CEM
SW-620 = system: SW-620
CAKI-1 = system: CAKI-1
HT-29 = system: HT-29
HL-60 = system: HL-60
MDA-N = system: MDA-N
SF-268 = system: SF-268
Hs-578T = system: Hs-578T
RPMI-8226 = system: RPMI-8226
MOLT-4 = system: MOLT-4

Brc1ccc2[nH]cc(-c3nc(-c4c[nH]c5ccccc45)cs3)c2c1
GI50 (M14): 1.74 µM (inactive)
GI50 (SF-295): 2.84 µM (inactive)
GI50 (OVCAR-3): 3.42 µM (inactive)
GI50 (MDA-MB-435): 3.88 µM (inactive)
GI50 (HCC 2998): 2.3 µM (inactive)
GI50 (KM12): 2.09 µM (inactive)
GI50 (786-0): 2.86 µM (inactive)
GI50 (SN12C): 3.49 µM (inactive)
GI50 (UO-31): 2.97 µM (inactive)
GI50 (SF-539): 2.9 µM (inactive)
GI50 (RXF 393): 5.48 µM (inactive)
GI50 (HCT-116): 2.53 µM (inactive)
GI50 (ACHN): 2.43 µM (inactive)
GI50 (PC-3): 3.11 µM (inactive)
GI50 (SK-MEL-2): 2.82 µM (inactive)
GI50 (HOP-92): 2.54 µM (inactive)
GI50 (Malme-3M): 3.17 µM (inactive)
GI50 (SR): 3.44 µM (inactive)
GI50 (MDA-MB-231): 2.37 µM (inactive)
GI50 (OVCAR-5): 1.95 µM (inactive)
GI50 (SK-MEL-28): 5.81 µM (inactive)
GI50 (OVCAR-8): 4.27 µM (inactive)
GI50 (HCT-15): 2.39 µM
GI50 (TK-10): 3.56 µM (inactive)
GI50 (DU-145): 3.45 µM (inactive)
GI50 (K562): 2.95 µM (inactive)
GI50 (SNB-75): 10.4 µM (inactive)
GI50 (OVCAR-4): 6.03 µM (inactive)
GI50 (A498): 2.88 µM (inactive)
GI50 (HOP-62): 4.58 µM (inactive)
GI50 (BT-549): 7.52 µM (inactive)
GI50 (SNB-19): 3.51 µM (inactive)
GI50 (EKVX): 2.46 µM (inactive)
GI50 (SK-OV-3): 8.13 µM (inactive)
GI50 (IGROV-1): 1.58 µM (inactive)
GI50 (UACC-257): 3.97 µM (inactive)
GI50 (UACC-62): 2.37 µM (inactive)
GI50 (T47D): 3.68 µM (inactive)
GI50 (U-251): 3.01 µM (inactive)
GI50 (LOX IMVI): 1.93 µM (inactive)
GI50 (NCI/ADR-RES): 2.79 µM (inactive)
GI50 (NCI-H23): 2.47 µM (inactive)
GI50 (A549): 3.24 µM (inactive)
GI50 (SK-MEL-5): 1.6 µM (inactive)
GI50 (COLO 205): 1.22 µM (inactive)
GI50 (NCI-H226): 2.59 µM (inactive)
GI50 (MCF7): 2.8 µM (inactive)
GI50 (NCI-H460): 2.06 µM (inactive)
GI50 (NCI-H522): 1.91 µM (inactive)
GI50 (CCRF-CEM): 3.79 µM (inactive)
GI50 (SW-620): 3.16 µM (inactive)
GI50 (CAKI-1): 2.74 µM (inactive)
GI50 (HT-29): 1.85 µM (inactive)
GI50 (HL-60): 3.37 µM (inactive)
GI50 (MDA-N): 2.91 µM (inactive)
GI50 (SF-268): 3 µM (inactive)
GI50 (Hs-578T): 5.86 µM (inactive)
GI50 (RPMI-8226): 3.18 µM (inactive)
GI50 (MOLT-4): 2.11 µM (inactive)

COC(=O)C1=CO[C@@H](OC2OC(CO)C(O)C(O)C2O)[C@H]2[C@@H](C)[C@@H](O)[C@@H](O)[C@@H]12 (stereo partly drawn)
GI50 (M14): > 100 µM (inactive)
GI50 (SF-295): > 100 µM (inactive)
GI50 (OVCAR-3): > 100 µM (inactive)
GI50 (MDA-MB-435): > 100 µM (inactive)
GI50 (HCC 2998): > 100 µM (inactive)
GI50 (KM12): > 100 µM (inactive)
GI50 (786-0): > 100 µM (inactive)
GI50 (SN12C): > 100 µM (inactive)
GI50 (UO-31): > 100 µM (inactive)
GI50 (SF-539): > 100 µM (inactive)
GI50 (RXF 393): > 100 µM (inactive)
GI50 (HCT-116): > 100 µM (inactive)
GI50 (ACHN): > 100 µM (inactive)
GI50 (PC-3): > 100 µM (inactive)
GI50 (SK-MEL-2): > 100 µM (inactive)
GI50 (HOP-92): > 100 µM (inactive)
GI50 (Malme-3M): > 100 µM (inactive)
GI50 (SR): 36.6 µM (inactive)
GI50 (MDA-MB-231): > 100 µM (inactive)
GI50 (OVCAR-5): > 100 µM (inactive)
GI50 (SK-MEL-28): > 100 µM (inactive)
GI50 (OVCAR-8): > 100 µM (inactive)
GI50 (HCT-15): > 100 µM
GI50 (TK-10): > 100 µM (inactive)
GI50 (DU-145): > 100 µM (inactive)
GI50 (SNB-75): > 100 µM (inactive)
GI50 (OVCAR-4): > 100 µM (inactive)
GI50 (A498): > 100 µM (inactive)
GI50 (HOP-62): > 100 µM (inactive)
GI50 (BT-549): > 100 µM (inactive)
GI50 (EKVX): > 100 µM (inactive)
GI50 (SK-OV-3): > 100 µM (inactive)
GI50 (IGROV-1): > 100 µM (inactive)
GI50 (UACC-257): > 100 µM (inactive)
GI50 (UACC-62): > 100 µM (inactive)
GI50 (T47D): > 100 µM (inactive)
GI50 (U-251): > 100 µM (inactive)
GI50 (LOX IMVI): > 100 µM (inactive)
GI50 (NCI/ADR-RES): > 100 µM (inactive)
GI50 (NCI-H23): > 100 µM (inactive)
GI50 (A549): > 100 µM (inactive)
GI50 (SK-MEL-5): > 100 µM (inactive)
GI50 (COLO 205): > 100 µM (inactive)
GI50 (NCI-H226): > 100 µM (inactive)
GI50 (MCF7): > 100 µM (inactive)
GI50 (NCI-H522): > 100 µM (inactive)
GI50 (SW-620): > 100 µM (inactive)
GI50 (CAKI-1): > 100 µM (inactive)
GI50 (HT-29): > 100 µM (inactive)
GI50 (HL-60): > 100 µM (inactive)
GI50 (MDA-N): > 100 µM (inactive)
GI50 (SF-268): > 100 µM (inactive)
GI50 (Hs-578T): > 100 µM (inactive)
GI50 (RPMI-8226): > 100 µM (inactive)
GI50 (MOLT-4): > 100 µM (inactive)

[N-]=[N+]=CC(=O)OC1Cc2ccccc2C1
GI50 (M14): > 100 µM (inactive)
GI50 (SF-295): 61.9 µM (inactive)
GI50 (OVCAR-3): > 100 µM (inactive)
GI50 (MDA-MB-435): > 100 µM (inactive)
GI50 (HCC 2998): > 100 µM (inactive)
GI50 (KM12): > 100 µM (inactive)
GI50 (786-0): > 81.7 µM (inactive)
GI50 (SN12C): > 39.4 µM (inactive)
GI50 (UO-31): 16.6 µM (inactive)
GI50 (SF-539): > 100 µM (inactive)
GI50 (RXF 393): > 42.6 µM (inactive)
GI50 (HCT-116): > 100 µM (inactive)
GI50 (ACHN): 27.7 µM (inactive)
GI50 (PC-3): > 95.7 µM (inactive)
GI50 (SK-MEL-2): > 100 µM (inactive)
GI50 (HOP-92): 69.7 µM (inactive)
GI50 (Malme-3M): > 100 µM (inactive)
GI50 (SR): > 100 µM (inactive)
GI50 (MDA-MB-231): > 100 µM (inactive)
GI50 (OVCAR-5): 73.1 µM (inactive)
GI50 (SK-MEL-28): > 100 µM (inactive)
GI50 (OVCAR-8): > 100 µM (inactive)
GI50 (HCT-15): > 100 µM
GI50 (TK-10): 97.3 µM (inactive)
GI50 (DU-145): 21.1 µM (inactive)
GI50 (K562): > 100 µM (inactive)
GI50 (SNB-75): 50.4 µM (inactive)
GI50 (OVCAR-4): > 100 µM (inactive)
GI50 (A498): > 100 µM (inactive)
GI50 (HOP-62): > 66.8 µM (inactive)
GI50 (BT-549): > 100 µM (inactive)
GI50 (SNB-19): > 100 µM (inactive)
GI50 (EKVX): > 100 µM (inactive)
GI50 (SK-OV-3): > 100 µM (inactive)
GI50 (IGROV-1): > 100 µM (inactive)
GI50 (UACC-257): > 100 µM (inactive)
GI50 (UACC-62): > 100 µM (inactive)
GI50 (T47D): > 100 µM (inactive)
GI50 (U-251): > 100 µM (inactive)
GI50 (LOX IMVI): > 100 µM (inactive)
GI50 (NCI/ADR-RES): > 100 µM (inactive)
GI50 (NCI-H23): > 100 µM (inactive)
GI50 (A549): 84.3 µM (inactive)
GI50 (SK-MEL-5): > 56.6 µM (inactive)
GI50 (COLO 205): > 72.6 µM (inactive)
GI50 (NCI-H226): > 93.3 µM (inactive)
GI50 (MCF7): > 100 µM (inactive)
GI50 (NCI-H460): > 100 µM (inactive)
GI50 (NCI-H522): > 71 µM (inactive)
GI50 (CCRF-CEM): > 31.6 µM (inactive)
GI50 (SW-620): > 100 µM (inactive)
GI50 (CAKI-1): 1 µM (active)
GI50 (HT-29): > 100 µM (inactive)
GI50 (HL-60): > 100 µM (inactive)
GI50 (MDA-N): > 100 µM (inactive)
GI50 (SF-268): > 100 µM (inactive)
GI50 (Hs-578T): 42.9 µM (inactive)
GI50 (RPMI-8226): > 100 µM (inactive)
GI50 (MOLT-4): > 100 µM (inactive)
